What is called kinetic solubility is solubility judged after dilution from a stock solution rather than from solid.

SMILES strings stand for the structures. ≈ marks a conversion by molar mass, not a printed value.

This is an account of results in publication PMC9019904, “AD Informer Set: Chemical tools to facilitate Alzheimer's disease drug discovery” (Alzheimer's & Dementia : Translational Research & Clinical …, 2022).

Data set [1] deals with BV2 (mouse microglia) cell line. Nature of the data set: pHrodo-myelin phagocytosis/cell viability high content imaging assay: phagocytosis signal. The format is cell-based. The procedure, abridged:
(§1)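 Mouse BV2 and human HMC3 microglia given pHrodo-myelin; phagocytosis and cell viability imaged together by high content imaging about 22 hours after myelin addition. Three measurements extracted, including intensity increase and decrease marking early and later apoptosis.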

For data set [2], the system named is HMC3 (human microglia) cell line. Described as above. The class given is cell-based. The procedure, abridged:
as §1

A short description of data set [3]: Kinetic solubility in aqueous buffer pH 7.4 by total chemiluminescent nitrogen determination (Analiza). Particulars: aqueous buffer, pH 7.4, aqueous buffer, kinetic from dmso stock.
The subject of data set [4] is BV2 (mouse microglia) cell line. Nature of the data set: pHrodo-myelin phagocytosis/cell viability high content imaging assay: viability (cell count, nuclear area, nuclear intensity). The procedure, abridged: (§2)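 Cells adhered overnight, then were exposed to compounds at a single 10 μM for 48 h in total, with pHrodo-myelin added for the last 20 h. High-content imaging gave cell count per well as the main viability measure plus mean nuclear intensity per cell. Duplicate wells were averaged and expressed as % of untreated control.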

The subject of data set [5] is HMC3 (human microglia) cell line. The data set is described as above. The procedure, abridged:
as §2

The mark [6] stands for this setting: BV2, 10 μM, cell count <70% control.
[7] abbreviates: HMC3, 10 μM, cell count <70% control.

As for `CCN1CCN(Cc2ccc(NC(=O)c3ccc(C)c(NC(=O)c4cncc(-c5cccs5)c4)c3)cc2C(F)(F)F)CC1` [ALW-II-41-27], the “Inhibition of mouse microglial phagocytosis at 10 μM (<70% control)” value in data set [1] (BV2, 10 μM) is given as “Y (The compound was found to inhibit phagocytosis (response threshold: <70% control) when murine immortalized microglial cells were dosed at 10 μM (Y: yes))”. For the same molecule, the “Inhibition of human microglial phagocytosis at 10 μM (<70% control)” value in data set [2] (HMC3, 10 μM) is “Y (The compound was found to inhibit phagocytosis (response threshold: <70% control) when human immortalized microglial cells were dosed at 10 μM (Y: yes))”. Besides, the kinetic solubility in data set [3] stood at 3.7 µM (≈ 2.25 µg/mL). Further, the “Mouse microglial cytotoxicity at 10 μM (<70% control)” value in data set [4] (BV2, 10 μM) is “Y (The compound was found to be cytotoxic (cell count threshold: <70% control) when murine immortalized microglial cells were dosed at 10 μM (Y: yes))”. Further, the “Human microglial cytotoxicity at 10 μM (<70% control)” value in data set [5] (HMC3, 10 μM) is recorded as “Y (The compound was found to be cytotoxic (cell count threshold: <70% control) when human immortalized microglial cells were dosed at 10 μM (Y: yes))”.
The matching figures for `C=CC(=O)Nc1cc2c(Nc3ccc(F)c(Cl)c3)ncnc2cc1OCCCN1CCOCC1` [Canertinib]: “Y (The compound was found to inhibit phagocytosis (response threshold: <70% control) when murine immortalized microglial cells were dosed at 10 μM (Y: yes))”, “Y (The compound was found to inhibit phagocytosis (response threshold: <70% control) when human immortalized microglial cells were dosed at 10 μM (Y: yes))”, 11 µM (≈ 5.35 µg/mL), “Y (The compound was found to be cytotoxic (cell count threshold: <70% control) when murine immortalized microglial cells were dosed at 10 μM (Y: yes))” and “Y (The compound was found to be cytotoxic (cell count threshold: <70% control) when human immortalized microglial cells were dosed at 10 μM (Y: yes))”.
In the case of `Cc1cc(Nc2ncc(Cl)c(Nc3ccccc3S(=O)(=O)C(C)C)n2)c(OC(C)C)cc1C1CCNCC1` [Ceritinib], in data set [1] (BV2, 10 μM), the “Inhibition of mouse microglial phagocytosis at 10 μM (<70% control)” value is given as “Y (The compound was found to inhibit phagocytosis (response threshold: <70% control) when murine immortalized microglial cells were dosed at 10 μM (Y: yes))”. Further, in data set [2] (HMC3, 10 μM), the “Inhibition of human microglial phagocytosis at 10 μM (<70% control)” value is “Y (The compound was found to inhibit phagocytosis (response threshold: <70% control) when human immortalized microglial cells were dosed at 10 μM (Y: yes))”. In addition, the kinetic solubility in data set [3] was found to be 25.1 µM (≈ 14 µg/mL). Also, in data set [4] (BV2, 10 μM), the “Mouse microglial cytotoxicity at 10 μM (<70% control)” value is given as “Y (The compound was found to be cytotoxic (cell count threshold: <70% control) when murine immortalized microglial cells were dosed at 10 μM (Y: yes))”. The “Human microglial cytotoxicity at 10 μM (<70% control)” value in data set [5] (HMC3, 10 μM) was “Y (The compound was found to be cytotoxic (cell count threshold: <70% control) when human immortalized microglial cells were dosed at 10 μM (Y: yes))”.
On to `CC1(COc2ccc3c(c2)ncn3-c2ccc3cccc(N4CCC(N)CC4)c3n2)COC1` [Crenolanib], for which the “Inhibition of mouse microglial phagocytosis at 10 μM (<70% control)” value in data set [1] (10 μM, BV2) is reported as “Y (The compound was found to inhibit phagocytosis (response threshold: <70% control) when murine immortalized microglial cells were dosed at 10 μM (Y: yes))”. Moreover, the “Inhibition of human microglial phagocytosis at 10 μM (<70% control)” value in data set [2] (10 μM, HMC3) is given as “Y (The compound was found to inhibit phagocytosis (response threshold: <70% control) when human immortalized microglial cells were dosed at 10 μM (Y: yes))”. The molecule also gave a kinetic solubility in data set [3] of 115 µM (≈ 51.1 µg/mL). Further, the “Mouse microglial cytotoxicity at 10 μM (<70% control)” value in data set [4] (10 μM, BV2) is “Y (The compound was found to be cytotoxic (cell count threshold: <70% control) when murine immortalized microglial cells were dosed at 10 μM (Y: yes))”. Besides, the “Human microglial cytotoxicity at 10 μM (<70% control)” value in data set [5] (10 μM, HMC3) is listed as “Y (The compound was found to be cytotoxic (cell count threshold: <70% control) when human immortalized microglial cells were dosed at 10 μM (Y: yes))”.
Turning to `c1ccc(CNc2nc(NCc3ccccc3)c3ccccc3n2)cc1` [DBeQ], in data set [1] (BV2, 10 μM), the “Inhibition of mouse microglial phagocytosis at 10 μM (<70% control)” value was “Y (The compound was found to inhibit phagocytosis (response threshold: <70% control) when murine immortalized microglial cells were dosed at 10 μM (Y: yes))”. Moreover, in data set [2] (HMC3, 10 μM), the “Inhibition of human microglial phagocytosis at 10 μM (<70% control)” value was “Y (The compound was found to inhibit phagocytosis (response threshold: <70% control) when human immortalized microglial cells were dosed at 10 μM (Y: yes))”. This molecule also displayed a kinetic solubility in data set [3] of 1.9 µM (≈ 0.647 µg/mL). Also, the “Mouse microglial cytotoxicity at 10 μM (<70% control)” value in data set [4] (setting [6]) was “Y (The compound was found to be cytotoxic (cell count threshold: <70% control) when murine immortalized microglial cells were dosed at 10 μM (Y: yes))”. Further, the “Human microglial cytotoxicity at 10 μM (<70% control)” value in data set [5] (setting [7]) is given as “Y (The compound was found to be cytotoxic (cell count threshold: <70% control) when human immortalized microglial cells were dosed at 10 μM (Y: yes))”.
Turning to `CSc1ccc2c(c1)c(CCN)c(C)n2Cc1ccc(Cl)cc1Cl.Cl` [K149], the “Inhibition of mouse microglial phagocytosis at 10 μM (<70% control)” value in data set [1] (10 μM, BV2) is reported as “Y (The compound was found to inhibit phagocytosis (response threshold: <70% control) when murine immortalized microglial cells were dosed at 10 μM (Y: yes))”. Moreover, the “Inhibition of human microglial phagocytosis at 10 μM (<70% control)” value in data set [2] (10 μM, HMC3) is given as “Y (The compound was found to inhibit phagocytosis (response threshold: <70% control) when human immortalized microglial cells were dosed at 10 μM (Y: yes))”. Also, the solubility (kinetic) in data set [3] is 5.7 µM. In addition, the “Mouse microglial cytotoxicity at 10 μM (<70% control)” value in data set [4] (10 μM, BV2) was “Y (The compound was found to be cytotoxic (cell count threshold: <70% control) when murine immortalized microglial cells were dosed at 10 μM (Y: yes))”. In addition, the “Human microglial cytotoxicity at 10 μM (<70% control)” value in data set [5] (10 μM, HMC3) was “Y (The compound was found to be cytotoxic (cell count threshold: <70% control) when human immortalized microglial cells were dosed at 10 μM (Y: yes))”.
With `COc1cccc2c(NCc3ccccc3)nc(-n3c(N)nc4ccccc43)nc12` [ML 240], in data set [1] (BV2, 10 μM), the “Inhibition of mouse microglial phagocytosis at 10 μM (<70% control)” value is “Y (The compound was found to inhibit phagocytosis (response threshold: <70% control) when murine immortalized microglial cells were dosed at 10 μM (Y: yes))”. Besides, the “Inhibition of human microglial phagocytosis at 10 μM (<70% control)” value in data set [2] (HMC3, 10 μM) is “Y (The compound was found to inhibit phagocytosis (response threshold: <70% control) when human immortalized microglial cells were dosed at 10 μM (Y: yes))”. The kinetic solubility in data set [3] is less than 0.4 µM. The “Mouse microglial cytotoxicity at 10 μM (<70% control)” value in data set [4] (setting [6]) is “Y (The compound was found to be cytotoxic (cell count threshold: <70% control) when murine immortalized microglial cells were dosed at 10 μM (Y: yes))”. In addition, the “Human microglial cytotoxicity at 10 μM (<70% control)” value in data set [5] (setting [7]) is recorded as “Y (The compound was found to be cytotoxic (cell count threshold: <70% control) when human immortalized microglial cells were dosed at 10 μM (Y: yes))”.
As to `Fc1ccc(C(CCCNCC2CCc3[nH]c4ccc(F)cc4c3C2)c2ccc(F)cc2)cc1` (stereo not shown) [MSC1094308], in data set [1] (BV2, 10 μM), the “Inhibition of mouse microglial phagocytosis at 10 μM (<70% control)” value was “Y (The compound was found to inhibit phagocytosis (response threshold: <70% control) when murine immortalized microglial cells were dosed at 10 μM (Y: yes))”. Moreover, in data set [2] (HMC3, 10 μM), the “Inhibition of human microglial phagocytosis at 10 μM (<70% control)” value is “Y (The compound was found to inhibit phagocytosis (response threshold: <70% control) when human immortalized microglial cells were dosed at 10 μM (Y: yes))”. This molecule returned a kinetic solubility in data set [3] of 3.9 µM (≈ 1.8 µg/mL). The “Mouse microglial cytotoxicity at 10 μM (<70% control)” value in data set [4] (setting [6]) is given as “Y (The compound was found to be cytotoxic (cell count threshold: <70% control) when murine immortalized microglial cells were dosed at 10 μM (Y: yes))”. For the same molecule, in data set [5] (setting [7]), the “Human microglial cytotoxicity at 10 μM (<70% control)” value was “Y (The compound was found to be cytotoxic (cell count threshold: <70% control) when human immortalized microglial cells were dosed at 10 μM (Y: yes))”.
